Assay results: ChEMBL document CHEMBL5303573, “Mapping human microbiome drug metabolism by gut bacteria and their genes” (Nature, 2019)

How the values were obtained:
[1] = The drug is tested on Bacteroides cellulosilyticus strain: DSM14838 for biotransformation. The drug concentrations were measured before and after a 12-h incubation by liquid-chromatography-coupled mass spectrometry (LC–MS); settings: 2 µM
[2] = bacteroides stercoris, 12 h, 2 µM
Description: The drug is tested on Bacteroides stercoris strain: ATCC43183 for biotransformation. The drug concentrations were measured before and after a 12-h incubation by liquid-chromatography-coupled mass spectrometry (LC–MS)

[3] = The drug is tested on Ruminococcus lactaris strain: ATCC29176 for biotransformation. The drug concentrations were measured before and after a 12-h incubation by liquid-chromatography-coupled mass spectrometry (LC–MS); settings: 2 µM
[4] = The drug is tested on Bacteroides uniformis strain: ATCC8492 for biotransformation. The drug concentrations were measured before and after a 12-h incubation by liquid-chromatography-coupled mass spectrometry (LC–MS); settings: 2 µM
[5] = The drug is tested on Providencia rettgeri strain: DSM1131 for biotransformation. The drug concentrations were measured before and after a 12-h incubation by liquid-chromatography-coupled mass spectrometry (LC–MS); format: ADME; design: dose 2 uM, timepoint 0 vs 12 hours; settings: 2 µM
[6] = bifidobacterium adolescentis, 12 h, 2 µM
Description: The drug is tested on Bifidobacterium adolescentis strain: ATCC 15703 for biotransformation. The drug concentrations were measured before and after a 12-h incubation by liquid-chromatography-coupled mass spectrometry (LC–MS)

[7] = The drug is tested on Ruminococcus torques strain: ATCC27756 for biotransformation. The drug concentrations were measured before and after a 12-h incubation by liquid-chromatography-coupled mass spectrometry (LC–MS); format: ADME; design: dose 2 uM, timepoint 0 vs 12 hours; settings: 2 µM
[8] = The drug is tested on Bifidobacterium ruminantium strain: fecal isolate for biotransformation. The drug concentrations were measured before and after a 12-h incubation by liquid-chromatography-coupled mass spectrometry (LC–MS); settings: 2 µM
[9] = bacteroides intestinalis, 12 h, 2 µM
Description: The drug is tested on Bacteroides intestinalis strain: DSM17393 for biotransformation. The drug concentrations were measured before and after a 12-h incubation by liquid-chromatography-coupled mass spectrometry (LC–MS)

[10] = The drug is tested on Clostridium symbiosum strain: ATCC14940 for biotransformation. The drug concentrations were measured before and after a 12-h incubation by liquid-chromatography-coupled mass spectrometry (LC–MS); settings: 2 µM
[11] = roseburia intestinalis, 12 h, 2 µM
Description: The drug is tested on Roseburia intestinalis strain: L1-82 for biotransformation. The drug concentrations were measured before and after a 12-h incubation by liquid-chromatography-coupled mass spectrometry (LC–MS)

[12] = The drug is tested on Bifidobacterium longum subsp. Infantis strain: CCUG52486 for biotransformation. The drug concentrations were measured before and after a 12-h incubation by liquid-chromatography-coupled mass spectrometry (LC–MS); settings: 2 µM
[13] = The drug is tested on Bacteroides finegoldii strain: DSM17565 for biotransformation. The drug concentrations were measured before and after a 12-h incubation by liquid-chromatography-coupled mass spectrometry (LC–MS); settings: 2 µM
[14] = bacteroides eggerthii, 12 h, 2 µM
Description: The drug is tested on Bacteroides eggerthii strain: DSM20697 for biotransformation. The drug concentrations were measured before and after a 12-h incubation by liquid-chromatography-coupled mass spectrometry (LC–MS)

[15] = The drug is tested on Bacteroides dorei strain: DSM17855 for biotransformation. The drug concentrations were measured before and after a 12-h incubation by liquid-chromatography-coupled mass spectrometry (LC–MS); settings: phocaeicola dorei, 2 µM
[16] = bacteroides thetaiotaomicron, 12 h, 2 µM
Description: The drug is tested on Bacteroides thetaiotaomicron strain: 7330 for biotransformation. The drug concentrations were measured before and after a 12-h incubation by liquid-chromatography-coupled mass spectrometry (LC–MS)

[17] = The drug is tested on Bacteroides vulgatus strain: ATCC8482 for biotransformation. The drug concentrations were measured before and after a 12-h incubation by liquid-chromatography-coupled mass spectrometry (LC–MS); settings: phocaeicola vulgatus, 2 µM
[18] = The drug is tested on Bacteroides fragilis strain: ATCC43859 for biotransformation. The drug concentrations were measured before and after a 12-h incubation by liquid-chromatography-coupled mass spectrometry (LC–MS); settings: 2 µM
[19] = akkermansia muciniphila, 12 h, 2 µM
Description: The drug is tested on Akkermansia muciniphila strain: ATCC BAA-835 for biotransformation. The drug concentrations were measured before and after a 12-h incubation by liquid-chromatography-coupled mass spectrometry (LC–MS)

[20] = The drug is tested on Bacteroides fragilis strain: HMW610 for biotransformation. The drug concentrations were measured before and after a 12-h incubation by liquid-chromatography-coupled mass spectrometry (LC–MS); settings: 2 µM

SMILES | Bacterial Biotransformation [1] | Bacterial Biotransformation [2] | Bacterial Biotransformation [3] | Bacterial Biotransformation [4] | Bacterial Biotransformation [5] | Bacterial Biotransformation [6] | Bacterial Biotransformation [7] | Bacterial Biotransformation [8] | Bacterial Biotransformation [9] | Bacterial Biotransformation [10] | Bacterial Biotransformation [11] | Bacterial Biotransformation [12] | Bacterial Biotransformation [13] | Bacterial Biotransformation [14] | Bacterial Biotransformation [15] | Bacterial Biotransformation [16] | Bacterial Biotransformation [17] | Bacterial Biotransformation [18] | Bacterial Biotransformation [19] | Bacterial Biotransformation [20]
CCOC(=O)C1=C[C@]2(CC)CCCN3CCc4c(n1c1ccccc41)[C@@H]32 [VINPOCETINE] | Compound NOT metabolized | Compound NOT metabolized | Compound NOT metabolized |  | Compound NOT metabolized | Compound NOT metabolized |  | Compound NOT metabolized | Compound NOT metabolized | Compound NOT metabolized |  | Compound NOT metabolized | Compound NOT metabolized | Compound NOT metabolized |  | Compound NOT metabolized | Compound NOT metabolized | Compound NOT metabolized |  | 
Nc1nc2ccc(OC(F)(F)F)cc2s1 [RILUZOLE] | Compound NOT metabolized | Compound metabolized | Compound NOT metabolized | Compound metabolized |  | Compound NOT metabolized |  | Compound metabolized | Compound NOT metabolized | Compound NOT metabolized | Compound NOT metabolized | Compound NOT metabolized | Compound NOT metabolized | Compound metabolized | Compound metabolized | Compound metabolized | Compound NOT metabolized | Compound metabolized | Compound NOT metabolized | Compound metabolized
OC(CCN1CCCCC1)(c1ccccc1)C1CCCCC1 (stereo unspecified) [TRIHEXYPHENIDYL] | Compound NOT metabolized |  | Compound NOT metabolized | Compound metabolized |  | Compound NOT metabolized |  | Compound metabolized | Compound NOT metabolized | Compound NOT metabolized |  | Compound NOT metabolized | Compound NOT metabolized |  | Compound metabolized |  |  | Compound NOT metabolized |  | Compound NOT metabolized
COc1cc2nc(N3CCN(C(=O)C4CCCO4)CC3)nc(N)c2cc1OC (stereo unspecified) [TERAZOSIN] | Compound NOT metabolized | Compound NOT metabolized |  | Compound NOT metabolized | Compound NOT metabolized | Compound NOT metabolized | Compound NOT metabolized |  | Compound NOT metabolized | Compound NOT metabolized | Compound NOT metabolized | Compound NOT metabolized | Compound NOT metabolized | Compound NOT metabolized | Compound NOT metabolized | Compound NOT metabolized | Compound NOT metabolized | Compound NOT metabolized | Compound NOT metabolized | Compound NOT metabolized
O=C1C(CC[S+]([O-])c2ccccc2)C(=O)N(c2ccccc2)N1c1ccccc1 (stereo unspecified) [SULFINPYRAZONE] | Compound NOT metabolized | Compound NOT metabolized | Compound NOT metabolized |  |  | Compound NOT metabolized |  | Compound NOT metabolized |  |  | Compound NOT metabolized | Compound NOT metabolized | Compound NOT metabolized | Compound NOT metabolized |  | Compound NOT metabolized | Compound NOT metabolized | Compound metabolized | Compound NOT metabolized | Compound metabolized

Other lines, results leading:

Bacterial Biotransformation [1] | Bacterial Biotransformation [2] | Bacterial Biotransformation [3] | Bacterial Biotransformation [4] | Bacterial Biotransformation [5] | Bacterial Biotransformation [6] | Bacterial Biotransformation [7] | Bacterial Biotransformation [8] | Bacterial Biotransformation [9] | Bacterial Biotransformation [10] | Bacterial Biotransformation [11] | Bacterial Biotransformation [12] | Bacterial Biotransformation [13] | Bacterial Biotransformation [14] | Bacterial Biotransformation [15] | Bacterial Biotransformation [16] | Bacterial Biotransformation [17] | Bacterial Biotransformation [18] | Bacterial Biotransformation [19] | Bacterial Biotransformation [20] | SMILES
Compound NOT metabolized | Compound NOT metabolized | Compound NOT metabolized | Compound NOT metabolized | Compound NOT metabolized | Compound NOT metabolized | Compound NOT metabolized | Compound NOT metabolized | Compound NOT metabolized | Compound NOT metabolized | Compound NOT metabolized | Compound NOT metabolized | Compound NOT metabolized | Compound NOT metabolized | Compound NOT metabolized | Compound NOT metabolized | Compound NOT metabolized | Compound NOT metabolized |  |  | CC(C)c1nc(N(C)S(C)(=O)=O)nc(-c2ccc(F)cc2)c1/C=C/[C@@H](O)C[C@@H](O)CC(=O)[O-].CC(C)c1nc(N(C)S(C)(=O)=O)nc(-c2ccc(F)cc2)c1/C=C/[C@@H](O)C[C@@H](O)CC(=O)[O-].[Ca+2] [ROSUVASTATIN CALCIUM]
Compound NOT metabolized | Compound NOT metabolized | Compound NOT metabolized | Compound NOT metabolized |  | Compound NOT metabolized | Compound NOT metabolized | Compound NOT metabolized | Compound NOT metabolized | Compound NOT metabolized | Compound NOT metabolized | Compound NOT metabolized | Compound NOT metabolized | Compound NOT metabolized | Compound NOT metabolized | Compound NOT metabolized | Compound NOT metabolized | Compound NOT metabolized | Compound NOT metabolized | Compound NOT metabolized | CC1=C(CC(=O)O)c2cc(F)ccc2/C1=C\c1ccc([S+](C)[O-])cc1 (stereo unspecified)
Compound NOT metabolized | Compound NOT metabolized | Compound NOT metabolized | Compound NOT metabolized |  | Compound NOT metabolized | Compound NOT metabolized | Compound NOT metabolized | Compound NOT metabolized | Compound NOT metabolized | Compound NOT metabolized | Compound NOT metabolized | Compound NOT metabolized | Compound NOT metabolized | Compound NOT metabolized | Compound NOT metabolized | Compound NOT metabolized | Compound NOT metabolized | Compound NOT metabolized | Compound NOT metabolized | OCCOCCN1CCN(C2=Nc3ccccc3Sc3ccccc32)CC1 [QUETIAPINE]
Compound NOT metabolized | Compound NOT metabolized | Compound NOT metabolized | Compound NOT metabolized | Compound NOT metabolized | Compound NOT metabolized | Compound NOT metabolized |  | Compound NOT metabolized | Compound NOT metabolized | Compound NOT metabolized | Compound NOT metabolized | Compound NOT metabolized | Compound NOT metabolized | Compound NOT metabolized | Compound NOT metabolized | Compound NOT metabolized | Compound NOT metabolized | Compound NOT metabolized | Compound NOT metabolized | CCCN(CCC)CCc1cccc2c1CC(=O)N2 [ROPINIROLE]
